Results on one compound are retold here after patent US10662195B2, “Protein kinase conjugates and inhibitors” (Celgene Avilomics Research, Inc., priority 2009, dated 2020).

The target in one assay is T1, FLT3 (Homo sapiens, UniProt P36888).
T1 construct: purchased PV3182
T1 sequence (P36888 27-993): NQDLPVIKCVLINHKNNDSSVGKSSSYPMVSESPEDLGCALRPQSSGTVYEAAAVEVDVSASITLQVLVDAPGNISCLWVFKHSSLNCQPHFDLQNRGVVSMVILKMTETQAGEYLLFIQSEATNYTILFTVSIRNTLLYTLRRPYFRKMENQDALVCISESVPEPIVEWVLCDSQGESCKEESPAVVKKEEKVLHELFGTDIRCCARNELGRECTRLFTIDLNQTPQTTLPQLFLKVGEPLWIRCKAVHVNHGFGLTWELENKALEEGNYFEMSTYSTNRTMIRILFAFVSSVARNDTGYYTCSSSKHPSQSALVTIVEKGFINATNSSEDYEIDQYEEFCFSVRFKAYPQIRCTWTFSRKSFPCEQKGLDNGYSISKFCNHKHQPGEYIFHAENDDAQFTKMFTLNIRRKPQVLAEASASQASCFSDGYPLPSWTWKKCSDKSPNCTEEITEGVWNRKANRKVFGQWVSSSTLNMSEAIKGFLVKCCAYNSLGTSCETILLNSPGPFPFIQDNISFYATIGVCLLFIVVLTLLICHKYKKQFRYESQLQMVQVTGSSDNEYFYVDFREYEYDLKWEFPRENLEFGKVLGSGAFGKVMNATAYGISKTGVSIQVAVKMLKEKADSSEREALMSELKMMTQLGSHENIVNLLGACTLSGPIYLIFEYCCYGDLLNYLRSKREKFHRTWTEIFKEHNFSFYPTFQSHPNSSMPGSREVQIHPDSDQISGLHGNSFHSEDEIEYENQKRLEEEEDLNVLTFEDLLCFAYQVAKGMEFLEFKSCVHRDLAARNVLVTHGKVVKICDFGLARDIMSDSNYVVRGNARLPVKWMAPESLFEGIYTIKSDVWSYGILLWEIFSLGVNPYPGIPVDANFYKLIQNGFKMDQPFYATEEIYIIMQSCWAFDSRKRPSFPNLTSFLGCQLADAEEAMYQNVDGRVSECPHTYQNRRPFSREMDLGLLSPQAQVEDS
In words: FLT-3 Omnia continuous-read kinase assay. The class given is biochemical. The following applies: 30 min pre-incubation, [ATP]=500 μM; read-out: IC50_APP FLT3. On the procedure: A. KDR and FLT-3 Omnia Assay for Potency Assessment:
The protocol below describes a continuous-read kinase assay to measure inherent potency of Avila Therapeutics' compounds against active KDR and FLT-3 enzymes. The assay was performed substantially as described by the vendor (Invitrogen, Carlsbad, Calif.; http://www.invitrogen.com/content.cfm?pageid=11338.)
Briefly, 10× stocks of KDR from Invitrogen or BPS Bioscience (PV3660 or 40301) and FLT-3 (PV3182) enzymes, 1.13×ATP (AS001A) and Y9-Sox or Y12-Sox peptide substrates (KCZ1001) were prepared in 1× kinase reaction buffer consisting of 20 mM Tris, pH 7.5, 5 mM MgCl2, 1 mM EGTA, 5 mM β-glycerophosphate, 5% glycerol (10× stock, KB002A) and 0.2 mM DTT (DS001A). 5 μL of enzyme were pre-incubated in a Corning (#3574) 384-well, white, non-binding surface microtiter plate (Corning, N.Y.) for 30 min at 27° C. with a 0.5 μL volume of 50% DMSO and serially diluted compounds prepared in 50% DMSO. Kinase reactions were started with the addition of 45 μL of the ATP/Y9 or Y5-Sox peptide substrate mix and monitored every 30-90 seconds for 60 minutes at λex360/λem485 in a Synergy^4 plate reader from BioTek (Winooski, Vt.). At the conclusion of each assay, progress curves from each well were examined for linear reaction kinetics and fit statistics (R^2, 95% confidence interval, absolute sum of squares). Initial velocity (0 minutes to 20+ minutes) from each reaction was determined from the slope of a plot of relative fluorescence units vs time (minutes) and then plotted against inhibitor concentration to estimate IC50 from Log [Inhibitor] vs Response, Variable Slope model in GraphPad Prism from GraphPad Software (San Diego, Calif.).
[FLT-3]=15 nM, [ATP]=500 μM and [Y5-Sox peptide]=10 μM (ATP KMapp=470 μM)
(§1) The reported IC50_APP and IC50 values are in units of nM.

The target of the next assay is BTK (Homo sapiens, UniProt Q06187). In words: Omnia assay for potency assessment against BTK. The assay is classed as biochemical. The following applies: 30 min pre-incubation; read-out: IC50_APP BTK.
Chain of BTK (Q06187 whole entry): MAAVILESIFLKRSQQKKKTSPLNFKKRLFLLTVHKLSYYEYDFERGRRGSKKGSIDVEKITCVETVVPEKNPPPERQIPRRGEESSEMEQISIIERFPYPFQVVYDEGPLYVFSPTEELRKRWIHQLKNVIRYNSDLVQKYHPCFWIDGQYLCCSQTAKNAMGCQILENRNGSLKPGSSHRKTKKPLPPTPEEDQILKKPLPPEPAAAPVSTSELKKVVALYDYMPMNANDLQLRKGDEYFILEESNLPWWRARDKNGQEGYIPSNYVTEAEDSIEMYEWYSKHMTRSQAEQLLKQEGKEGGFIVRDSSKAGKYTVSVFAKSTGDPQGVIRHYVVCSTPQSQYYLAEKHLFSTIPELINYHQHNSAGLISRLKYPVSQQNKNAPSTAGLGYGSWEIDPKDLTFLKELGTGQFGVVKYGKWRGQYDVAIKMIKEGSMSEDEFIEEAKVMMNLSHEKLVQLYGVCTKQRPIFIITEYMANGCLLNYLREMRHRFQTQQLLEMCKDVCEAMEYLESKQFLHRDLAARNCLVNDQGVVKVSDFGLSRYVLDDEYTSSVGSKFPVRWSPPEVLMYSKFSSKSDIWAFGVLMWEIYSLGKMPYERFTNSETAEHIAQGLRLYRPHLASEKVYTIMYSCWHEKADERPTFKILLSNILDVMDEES
From the text: B. Omnia Assay Protocol for Potency Assessment Against BTK
Below describes the protocol using EGFR-WT and EGFR-T790M/L858R and the protocol BTK-optimized reagent conditions then follow.
The mechanics of the assay platform are best described by the vendor (Invitrogen, Carlsbad, Calif.) on their website at the following URL: http://www.invitrogen.com/content.cfm?pageid=11338 or http://www.invitrogen.com/site/us/en/home/Products-and-Services/Applications/Drug-Discovery/Target-and-Lead-Identification-and-Validation/KinaseBiology/KB-Misc/Biochemical-Assays/Omnia-Kinase-Assays.html.
Briefly, 10× stocks of EGFR-WT (PV3872) from Invitrogen and EGFR-T790M/L858R (40350) from BPS Bioscience, San Diego, Calif., 1.13×ATP (AS001A) and appropriate Tyr-Sox conjugated peptide substrates (KCZ1001) were prepared in 1× kinase reaction buffer consisting of 20 mM Tris, pH 7.5, 5 mM MgCl2, 1 mM EGTA, 5 mM β-glycerophosphate, 5% glycerol (10× stock, KB002A) and 0.2 mM DTT (DS001A). 5 μL of each enzyme were pre-incubated in a Corning (#3574) 384-well, white, non-binding surface microtiter plate (Corning, N.Y.) for 30 min. at 27° C. with a 0.5 μL volume of 50% DMSO and serially diluted compounds prepared in 50% DMSO. Kinase reactions were started with the addition of 45 μL of the ATP/Tyr-Sox peptide substrate mix and monitored every 30-90 seconds for 60 minutes at λex360/λem485 in a Synergy^4 plate reader from BioTek (Winooski, Vt.). At the conclusion of each assay, progress curves from each well were examined for linear reaction kinetics and fit statistics (R^2, 95% confidence interval, absolute sum of squares). Initial velocity (0 minutes to ˜30 minutes) from each reaction was determined from the slope of a plot of relative fluorescence units vs time (minutes) and then plotted against inhibitor concentration to estimate IC50 from log [Inhibitor] vs Response, Variable Slope model in GraphPad Prism from GraphPad Software (San Diego, Calif.).
The modified BTK-optimized reagent conditions for the above protocol are:
[BTK]=5 nM, [ATP]=[…], [Y5-Sox]=[…] (ATP KMapp˜[…]).
as §1

SMILES strings stand for the structures.

Take `C=CC(=O)N1CCC(Sc2nc(Nc3ncc(C#N)s3)cc(N3CCN(C)CC3)n2)CC1` [II-2, 2-(2-(1-Acryloylpiperidin-4-ylthio)-6-(4-methylpiperazin-1-yl)pyrimidin-4-ylamino)thiazole-5-carbonitrile]: the IC50 at FLT3 was determined as 0.508 nM; at BTK it was 0.572 nM.
